Molecules are shown by their SMILES. Values joined by “and” are separate entries in the source; they are usually repeats but may differ in a detail not shown here. Identical values can stand only once.

NEK6 (human), sequence (Q9HC98 whole entry, looked up): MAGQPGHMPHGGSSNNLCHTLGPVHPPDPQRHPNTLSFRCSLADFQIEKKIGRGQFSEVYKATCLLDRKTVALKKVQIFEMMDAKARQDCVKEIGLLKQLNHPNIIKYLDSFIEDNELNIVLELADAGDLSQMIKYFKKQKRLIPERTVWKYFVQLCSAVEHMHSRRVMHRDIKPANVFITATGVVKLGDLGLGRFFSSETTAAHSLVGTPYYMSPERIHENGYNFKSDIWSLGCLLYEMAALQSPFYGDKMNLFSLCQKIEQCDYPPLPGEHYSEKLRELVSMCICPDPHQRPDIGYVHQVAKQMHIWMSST
CDK9 CCNT1 (human), sequence (O60563 whole entry, looked up): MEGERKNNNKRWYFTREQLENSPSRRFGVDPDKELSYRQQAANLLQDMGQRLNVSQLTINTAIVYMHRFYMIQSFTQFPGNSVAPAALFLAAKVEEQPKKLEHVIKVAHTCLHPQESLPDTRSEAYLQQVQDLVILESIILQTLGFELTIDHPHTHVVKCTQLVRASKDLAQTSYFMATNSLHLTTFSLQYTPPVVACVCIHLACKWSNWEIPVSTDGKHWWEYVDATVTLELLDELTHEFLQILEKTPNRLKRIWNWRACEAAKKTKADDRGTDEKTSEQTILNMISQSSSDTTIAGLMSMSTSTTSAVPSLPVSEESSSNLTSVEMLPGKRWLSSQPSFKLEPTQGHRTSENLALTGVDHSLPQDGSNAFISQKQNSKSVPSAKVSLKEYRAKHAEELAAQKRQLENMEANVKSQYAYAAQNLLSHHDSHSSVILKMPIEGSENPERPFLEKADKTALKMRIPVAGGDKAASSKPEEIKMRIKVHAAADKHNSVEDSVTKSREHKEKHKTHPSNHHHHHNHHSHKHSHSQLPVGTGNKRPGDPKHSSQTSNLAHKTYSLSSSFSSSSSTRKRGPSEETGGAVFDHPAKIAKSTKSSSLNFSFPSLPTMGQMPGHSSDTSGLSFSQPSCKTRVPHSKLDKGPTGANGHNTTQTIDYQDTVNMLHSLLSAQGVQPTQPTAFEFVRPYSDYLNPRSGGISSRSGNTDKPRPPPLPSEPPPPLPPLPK
CDK9 CCNT1 (human), sequence (P50750 whole entry, looked up): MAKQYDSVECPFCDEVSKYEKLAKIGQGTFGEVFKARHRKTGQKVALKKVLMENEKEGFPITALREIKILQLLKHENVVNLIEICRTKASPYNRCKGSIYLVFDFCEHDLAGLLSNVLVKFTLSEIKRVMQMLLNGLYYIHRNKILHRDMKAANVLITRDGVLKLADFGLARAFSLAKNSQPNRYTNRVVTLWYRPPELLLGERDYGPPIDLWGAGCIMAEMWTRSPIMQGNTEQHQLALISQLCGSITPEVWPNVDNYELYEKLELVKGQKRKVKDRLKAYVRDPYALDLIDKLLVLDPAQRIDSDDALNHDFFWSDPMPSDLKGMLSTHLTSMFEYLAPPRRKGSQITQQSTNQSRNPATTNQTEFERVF
ROCK2 (human), sequence (O75116 whole entry, looked up): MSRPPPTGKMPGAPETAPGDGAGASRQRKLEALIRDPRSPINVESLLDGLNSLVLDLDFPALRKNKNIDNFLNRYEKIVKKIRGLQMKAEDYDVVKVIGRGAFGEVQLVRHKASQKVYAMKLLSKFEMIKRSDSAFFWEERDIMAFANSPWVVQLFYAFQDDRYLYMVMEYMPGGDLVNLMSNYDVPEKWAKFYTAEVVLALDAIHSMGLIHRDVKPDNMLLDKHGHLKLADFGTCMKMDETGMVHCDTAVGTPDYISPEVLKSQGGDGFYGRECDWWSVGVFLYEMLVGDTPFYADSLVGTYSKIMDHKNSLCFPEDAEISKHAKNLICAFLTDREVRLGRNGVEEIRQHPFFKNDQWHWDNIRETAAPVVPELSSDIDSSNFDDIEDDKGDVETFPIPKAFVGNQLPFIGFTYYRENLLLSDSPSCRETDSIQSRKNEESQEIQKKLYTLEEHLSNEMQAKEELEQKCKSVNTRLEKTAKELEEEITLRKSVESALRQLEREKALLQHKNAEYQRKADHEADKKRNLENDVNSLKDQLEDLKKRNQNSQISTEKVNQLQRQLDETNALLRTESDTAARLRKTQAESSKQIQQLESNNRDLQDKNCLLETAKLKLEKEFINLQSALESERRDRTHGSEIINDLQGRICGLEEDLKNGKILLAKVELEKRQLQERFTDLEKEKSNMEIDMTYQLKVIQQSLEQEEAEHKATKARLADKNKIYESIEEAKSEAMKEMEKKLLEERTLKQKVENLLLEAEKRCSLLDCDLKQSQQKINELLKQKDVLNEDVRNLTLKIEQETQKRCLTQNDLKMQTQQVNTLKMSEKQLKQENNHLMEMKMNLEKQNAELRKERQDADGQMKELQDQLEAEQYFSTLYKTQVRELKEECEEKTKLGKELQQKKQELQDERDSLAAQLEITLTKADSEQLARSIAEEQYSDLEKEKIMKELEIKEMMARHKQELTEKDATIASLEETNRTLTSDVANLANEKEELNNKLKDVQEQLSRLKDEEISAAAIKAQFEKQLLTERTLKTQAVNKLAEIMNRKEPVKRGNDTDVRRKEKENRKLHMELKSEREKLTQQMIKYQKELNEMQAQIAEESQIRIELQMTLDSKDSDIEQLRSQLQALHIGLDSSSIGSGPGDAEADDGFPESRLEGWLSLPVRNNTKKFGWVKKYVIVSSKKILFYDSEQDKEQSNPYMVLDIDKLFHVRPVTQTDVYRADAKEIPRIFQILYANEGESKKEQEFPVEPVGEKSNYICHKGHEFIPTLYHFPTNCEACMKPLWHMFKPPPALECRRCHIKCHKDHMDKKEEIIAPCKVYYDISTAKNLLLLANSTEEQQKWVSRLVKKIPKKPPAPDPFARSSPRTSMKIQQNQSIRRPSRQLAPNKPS

The first test has as its target ABL1 (human) (UniProt P00519). The experiment in a line: radiometric filter-binding kinase assay, Kinase HotSpot. As to conditions: compound 0.5 µM; ATP 10 µM.
With `O=C(CCCc1ccc(-c2ccccc2F)cc1)Nc1ccc(O)cc1`, the residual activity was 101%.
Take `CCN(CC)CCCCN1c2ccccc2Oc2ccc(Cl)cc21`: the residual activity stood at 107%.
As for `O=C(O)/C=C/c1cc(Br)c(Br)c(Br)c1Br`, the residual activity was found to be 81.5%.

A further test addresses MAPK9 (human) (UniProt P45984). The description is as above. The following applies: compound 0.5 µM; ATP 10 µM.
Consider `O=C(CCCc1ccc(-c2ccccc2F)cc1)Nc1ccc(O)cc1`, for which the residual activity is 106%.
As to `CCN(CC)CCCCN1c2ccccc2Oc2ccc(Cl)cc21`, the residual activity turned out to be 105%.
Same read-out and setting: the same measure for `O=C(O)/C=C/c1cc(Br)c(Br)c(Br)c1Br`: 96.4%.

Another test addresses NEK6 (human) (UniProt Q9HC98). Described as above. As to conditions: compound 0.5 µM; ATP 10 µM.
Turning to `O=C(CCCc1ccc(-c2ccccc2F)cc1)Nc1ccc(O)cc1`, the residual activity was 99.4%.
On the same count and under the same terms, the same measure for `CCN(CC)CCCCN1c2ccccc2Oc2ccc(Cl)cc21`: 107%; for `O=C(O)/C=C/c1cc(Br)c(Br)c(Br)c1Br`: 102%.

The next test addresses ROCK2 (human) (UniProt O75116). Described as above. The following applies: compound 0.5 µM; ATP 10 µM.
As to `O=C(CCCc1ccc(-c2ccccc2F)cc1)Nc1ccc(O)cc1`, the residual activity amounted to 90.5%.
`CCN(CC)CCCCN1c2ccccc2Oc2ccc(Cl)cc21`: the residual activity is 104%.
As to `O=C(O)/C=C/c1cc(Br)c(Br)c(Br)c1Br`, the residual activity worked out at 94.2%.

For a further test, the target named is EPHA2 (human) (UniProt P29317). The test is described as above. As to conditions: compound 0.5 µM; ATP 10 µM.
EPHA2 (human), sequence (P29317 whole entry, looked up): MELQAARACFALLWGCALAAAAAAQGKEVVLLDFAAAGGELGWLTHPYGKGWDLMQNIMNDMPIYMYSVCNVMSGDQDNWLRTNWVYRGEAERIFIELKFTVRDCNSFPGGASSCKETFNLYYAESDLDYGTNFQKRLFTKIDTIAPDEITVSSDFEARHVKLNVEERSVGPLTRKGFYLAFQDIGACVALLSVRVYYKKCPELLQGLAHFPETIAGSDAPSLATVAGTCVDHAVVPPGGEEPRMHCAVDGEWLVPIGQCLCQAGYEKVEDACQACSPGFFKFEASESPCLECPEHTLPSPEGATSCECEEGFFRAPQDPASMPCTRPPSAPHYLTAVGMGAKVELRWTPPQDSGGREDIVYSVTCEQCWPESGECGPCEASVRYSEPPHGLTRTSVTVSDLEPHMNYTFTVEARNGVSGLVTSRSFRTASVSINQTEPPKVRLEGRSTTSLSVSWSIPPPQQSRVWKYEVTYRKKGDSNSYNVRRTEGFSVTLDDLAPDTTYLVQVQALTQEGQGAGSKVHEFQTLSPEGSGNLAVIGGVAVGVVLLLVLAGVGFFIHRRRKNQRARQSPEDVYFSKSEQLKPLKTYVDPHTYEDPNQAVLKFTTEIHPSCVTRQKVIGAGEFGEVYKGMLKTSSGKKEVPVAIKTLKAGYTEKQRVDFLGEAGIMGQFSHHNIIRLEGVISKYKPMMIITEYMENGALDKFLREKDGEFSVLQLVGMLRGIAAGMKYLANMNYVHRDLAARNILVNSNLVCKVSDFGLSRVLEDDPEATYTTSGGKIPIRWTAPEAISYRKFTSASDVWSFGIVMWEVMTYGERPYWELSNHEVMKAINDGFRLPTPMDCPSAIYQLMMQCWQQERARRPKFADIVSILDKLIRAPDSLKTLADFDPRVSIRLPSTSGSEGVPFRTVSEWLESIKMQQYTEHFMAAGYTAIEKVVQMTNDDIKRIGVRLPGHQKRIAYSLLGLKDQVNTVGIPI
For `O=C(CCCc1ccc(-c2ccccc2F)cc1)Nc1ccc(O)cc1`, the residual activity worked out at 101%.
`CCN(CC)CCCCN1c2ccccc2Oc2ccc(Cl)cc21`: the residual activity came to 106%.
With `O=C(O)/C=C/c1cc(Br)c(Br)c(Br)c1Br`, the residual activity was 97.9%.

Another test deals with LTK (human) (UniProt P29376). The test is described as above. As to conditions: compound 0.5 µM; ATP 10 µM.
With `O=C(CCCc1ccc(-c2ccccc2F)cc1)Nc1ccc(O)cc1`, the residual activity was 106%.
On to `CCN(CC)CCCCN1c2ccccc2Oc2ccc(Cl)cc21`, for which the residual activity worked out at 98.4%.
As to `O=C(O)/C=C/c1cc(Br)c(Br)c(Br)c1Br`, the residual activity turned out to be 94.5%.

The target of another test is MYLK (human) (UniProt Q15746). The description is as above. As to conditions: compound 0.5 µM; ATP 10 µM.
For the molecule `O=C(CCCc1ccc(-c2ccccc2F)cc1)Nc1ccc(O)cc1`, the residual activity is 98.6%.
`CCN(CC)CCCCN1c2ccccc2Oc2ccc(Cl)cc21`: the residual activity stood at 97%.
For the molecule `O=C(O)/C=C/c1cc(Br)c(Br)c(Br)c1Br`, the residual activity came out at 83.3%.

The target of another test is LYN (human) (UniProt P07948). The test is described as above. The following applies: compound 0.5 µM; ATP 10 µM.
As for `O=C(CCCc1ccc(-c2ccccc2F)cc1)Nc1ccc(O)cc1`, the residual activity is 102% and 87.7%.
Consider `CCN(CC)CCCCN1c2ccccc2Oc2ccc(Cl)cc21`, for which the residual activity was 105% and 115%.
In the case of `O=C(O)/C=C/c1cc(Br)c(Br)c(Br)c1Br`, the residual activity is 102% and 99.3%.

The target in another test is PRKD3 (human) (UniProt O94806). The test is described as above. The following applies: compound 0.5 µM; ATP 10 µM.
As to `O=C(CCCc1ccc(-c2ccccc2F)cc1)Nc1ccc(O)cc1`, the residual activity was 96.9%.
Still for that read-out and setting: the same measure for `CCN(CC)CCCCN1c2ccccc2Oc2ccc(Cl)cc21`: 97.1%; for `O=C(O)/C=C/c1cc(Br)c(Br)c(Br)c1Br`: 87.9%.

For the next test, the target named is AURKC (human) (UniProt Q9UQB9). Described as above. The following applies: compound 0.5 µM; ATP 10 µM.
Consider `O=C(CCCc1ccc(-c2ccccc2F)cc1)Nc1ccc(O)cc1`, for which the residual activity is 95.4%.
Take `CCN(CC)CCCCN1c2ccccc2Oc2ccc(Cl)cc21`: the residual activity worked out at 99.3%.
`O=C(O)/C=C/c1cc(Br)c(Br)c(Br)c1Br`: the residual activity came to 90.3%.

The target of a further test is FLT3 (human) (UniProt P36888). Described as above. The following applies: compound 0.5 µM; ATP 10 µM.
Regarding `O=C(CCCc1ccc(-c2ccccc2F)cc1)Nc1ccc(O)cc1`, the residual activity turned out to be 104%.
In the case of `CCN(CC)CCCCN1c2ccccc2Oc2ccc(Cl)cc21`, the residual activity was 99%.
On to `O=C(O)/C=C/c1cc(Br)c(Br)c(Br)c1Br`, for which the residual activity came to 79%.

A further test addresses DYRK4 (human) (UniProt Q9NR20). Described as above. As to conditions: compound 0.5 µM; ATP 10 µM.
As to `O=C(CCCc1ccc(-c2ccccc2F)cc1)Nc1ccc(O)cc1`, the residual activity is 97.4%.
Regarding `CCN(CC)CCCCN1c2ccccc2Oc2ccc(Cl)cc21`, the residual activity came out at 100%.
As to `O=C(O)/C=C/c1cc(Br)c(Br)c(Br)c1Br`, the residual activity is 96.4%.

Another test concerns the target NEK7 (human) (UniProt Q8TDX7). The test is described as above. The following applies: compound 0.5 µM; ATP 10 µM.
Take `O=C(CCCc1ccc(-c2ccccc2F)cc1)Nc1ccc(O)cc1`: the residual activity was found to be 97.3%.
Consider `CCN(CC)CCCCN1c2ccccc2Oc2ccc(Cl)cc21`, for which the residual activity was determined as 89.7%.
As to `O=C(O)/C=C/c1cc(Br)c(Br)c(Br)c1Br`, the residual activity stood at 98%.

A further test deals with TGFBR1 (human) (UniProt P36897). The description is as above. The following applies: compound 0.5 µM; ATP 10 µM.
As for `O=C(CCCc1ccc(-c2ccccc2F)cc1)Nc1ccc(O)cc1`, the residual activity was 102%.
In the case of `CCN(CC)CCCCN1c2ccccc2Oc2ccc(Cl)cc21`, the residual activity worked out at 97.2%.
On to `O=C(O)/C=C/c1cc(Br)c(Br)c(Br)c1Br`, for which the residual activity came out at 90.8%.

The target of a further test is BMX (human) (UniProt P51813). The test is described as above. The following applies: compound 0.5 µM; ATP 10 µM.
Consider `O=C(CCCc1ccc(-c2ccccc2F)cc1)Nc1ccc(O)cc1`, for which the residual activity was 99.6%.
In the case of `CCN(CC)CCCCN1c2ccccc2Oc2ccc(Cl)cc21`, the residual activity amounted to 104%.
Consider `O=C(O)/C=C/c1cc(Br)c(Br)c(Br)c1Br`, for which the residual activity was found to be 97%.

The next test addresses CDK9 CCNT1 (human) (UniProt P50750+O60563). Described as above. The following applies: compound 0.5 µM; ATP 10 µM.
Turning to `O=C(CCCc1ccc(-c2ccccc2F)cc1)Nc1ccc(O)cc1`, the residual activity was 103%.
Still for that read-out and setting: the same measure for `CCN(CC)CCCCN1c2ccccc2Oc2ccc(Cl)cc21`: 101%; for `O=C(O)/C=C/c1cc(Br)c(Br)c(Br)c1Br`: 58.9%.

The next test concerns the target DAPK1 (human) (UniProt P53355). Described as above. As to conditions: compound 0.5 µM; ATP 10 µM.
For `O=C(CCCc1ccc(-c2ccccc2F)cc1)Nc1ccc(O)cc1`, the residual activity came to 110%.
With `CCN(CC)CCCCN1c2ccccc2Oc2ccc(Cl)cc21`, the residual activity was determined as 76.6%.
As to `O=C(O)/C=C/c1cc(Br)c(Br)c(Br)c1Br`, the residual activity stood at 73.7%.

Another test addresses CSNK2A2 (human) (UniProt P19784). The test is described as above. The following applies: compound 0.5 µM; ATP 10 µM.
With `O=C(CCCc1ccc(-c2ccccc2F)cc1)Nc1ccc(O)cc1`, the residual activity came to 78.7%.
On the same count and under the same terms, the same measure for `CCN(CC)CCCCN1c2ccccc2Oc2ccc(Cl)cc21`: 94.6%; for `O=C(O)/C=C/c1cc(Br)c(Br)c(Br)c1Br`: 17%.

In the next test the target is TYRO3 (human) (UniProt Q06418). Described as above. As to conditions: compound 0.5 µM; ATP 10 µM.
TYRO3 (human), sequence (Q06418 whole entry, looked up): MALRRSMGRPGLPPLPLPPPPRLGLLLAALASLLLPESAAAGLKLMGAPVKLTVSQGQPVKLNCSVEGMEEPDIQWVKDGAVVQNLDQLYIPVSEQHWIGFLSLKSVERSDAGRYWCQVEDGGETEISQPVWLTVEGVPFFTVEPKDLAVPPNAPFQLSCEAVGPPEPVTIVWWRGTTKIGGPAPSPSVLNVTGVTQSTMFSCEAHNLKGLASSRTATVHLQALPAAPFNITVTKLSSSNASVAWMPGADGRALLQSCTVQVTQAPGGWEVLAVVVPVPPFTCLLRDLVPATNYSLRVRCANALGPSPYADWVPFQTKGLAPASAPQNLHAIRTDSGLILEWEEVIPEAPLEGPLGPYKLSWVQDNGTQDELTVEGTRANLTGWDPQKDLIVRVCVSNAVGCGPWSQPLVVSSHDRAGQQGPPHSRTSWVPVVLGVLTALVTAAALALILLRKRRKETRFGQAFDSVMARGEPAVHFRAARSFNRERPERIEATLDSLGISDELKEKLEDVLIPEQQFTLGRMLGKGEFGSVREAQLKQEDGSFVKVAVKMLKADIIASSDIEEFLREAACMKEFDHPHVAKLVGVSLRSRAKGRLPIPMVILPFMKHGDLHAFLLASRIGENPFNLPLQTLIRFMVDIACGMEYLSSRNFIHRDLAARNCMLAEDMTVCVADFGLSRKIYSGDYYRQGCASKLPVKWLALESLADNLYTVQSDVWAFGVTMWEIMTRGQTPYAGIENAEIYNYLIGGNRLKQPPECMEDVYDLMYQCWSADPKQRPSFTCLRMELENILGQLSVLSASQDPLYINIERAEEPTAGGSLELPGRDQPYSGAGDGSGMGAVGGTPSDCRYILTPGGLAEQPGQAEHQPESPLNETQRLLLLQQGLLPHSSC
Take `O=C(CCCc1ccc(-c2ccccc2F)cc1)Nc1ccc(O)cc1`: the residual activity was found to be 98.2%.
Take `CCN(CC)CCCCN1c2ccccc2Oc2ccc(Cl)cc21`: the residual activity was found to be 103%.
On to `O=C(O)/C=C/c1cc(Br)c(Br)c(Br)c1Br`, for which the residual activity stood at 93.3%.

For another test, the target named is PNCK (human) (UniProt Q6P2M8). Described as above. The following applies: compound 0.5 µM; ATP 10 µM.
In the case of `O=C(CCCc1ccc(-c2ccccc2F)cc1)Nc1ccc(O)cc1`, the residual activity worked out at 102%.
For `CCN(CC)CCCCN1c2ccccc2Oc2ccc(Cl)cc21`, the residual activity came to 107%.
In the case of `O=C(O)/C=C/c1cc(Br)c(Br)c(Br)c1Br`, the residual activity was determined as 95.1%.

The target of another test is CDK2 CCNE1 (human) (UniProt P24941+P24864). The test is described as above. The following applies: compound 0.5 µM; ATP 10 µM.
CDK2 CCNE1 (human), sequence (P24864 whole entry, looked up, other chains not shown): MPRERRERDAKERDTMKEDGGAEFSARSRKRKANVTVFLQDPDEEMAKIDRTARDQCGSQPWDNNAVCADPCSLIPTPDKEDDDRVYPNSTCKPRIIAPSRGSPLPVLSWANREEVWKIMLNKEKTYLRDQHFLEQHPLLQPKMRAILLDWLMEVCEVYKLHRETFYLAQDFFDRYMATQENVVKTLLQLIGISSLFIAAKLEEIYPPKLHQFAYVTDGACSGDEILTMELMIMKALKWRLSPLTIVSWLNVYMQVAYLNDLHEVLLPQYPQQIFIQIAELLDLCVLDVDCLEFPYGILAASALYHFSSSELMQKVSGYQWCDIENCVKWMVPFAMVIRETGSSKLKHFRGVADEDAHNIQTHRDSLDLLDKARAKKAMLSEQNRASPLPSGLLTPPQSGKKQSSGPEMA
As for `O=C(CCCc1ccc(-c2ccccc2F)cc1)Nc1ccc(O)cc1`, the residual activity came out at 91.9%.
On to `CCN(CC)CCCCN1c2ccccc2Oc2ccc(Cl)cc21`, for which the residual activity stood at 89.4%.
Regarding `O=C(O)/C=C/c1cc(Br)c(Br)c(Br)c1Br`, the residual activity is 89.4%.

Source of the values: the kinase profiling compilation of Christmann-Franck et al. (2016).
